From PMC11257039, “VCP activator reverses nuclear proteostasis defects and enhances TDP-43 aggregate clearance in multisystem proteinopathy models” (The Journal of Clinical Investigation, 2024)
Where “and” joins values, the source holds several entries; their conditions need not be identical. Equal entries are not always repeated. Entries after “also recorded” stand apart in the source; their conditions may differ.

Columns and labels:
luciferase = assay: Luciferase counter assay: Kinase-Glo with 62.5 μM ATP without recombinant VCP; type: biochemical; details: for measured ATP consumed (nmol) without VCP: replicate values
Method: (§1) Experiments with varied activator concentration and screening were measured using the Kinase-Glo Luminescent Kinase Assay (Promega). Reactions were incubated at 25°C for 1 hour then reduced to 4°C in a thermocycler consisting of 50 nM of recombinant VCP with or without 50 nM UFD1/NPLOC4 in 50 uL ATPase buffer (25 mM HEPES, pH 7.5, 100 mM NaCl, 10 mM MgCl2) at 2% DMSO with 62.5 μM ATP and a range of activator concentrations (Gibco, Sigma-Aldrich). Equal volumes of reaction and Kinase-Glo reagent were incubated for 20 minutes at room temperature in a 96 well white flat bottom plate (Corning). Luminescence was measured in a microplate reader (Spark 20M, Tecan).
(A-D) Measured ATP as determined by a Kinase-Glo assay of 62.5μM ATP in the presence of increasing concentrations of compound without recombinant VCP present. (for all panels: n=3 with 4 technical replicates per experiment, points are expressed as beta ± SE, linear mixed effects model, P>0.05 for each […]
(1 picture or pasted object on this page, not shown here)

recombinant WT VCP [1] = target: T1, recombinant WT VCP (Mus musculus, UniProt Q01853); assay: MESG-PNP (EnzCheck) phosphate release ATPase assay, WT VCP; type: biochemical; details: for ATPase activity v0/ET: 25 μM compound, replicate experiments
T1 construct: in the full-length recombinant VCP; His (N); made in house; host or cells: Escherichia coli BL21-CodonPlus (DE3)-RIL
T1 sequence (Q01853 whole entry): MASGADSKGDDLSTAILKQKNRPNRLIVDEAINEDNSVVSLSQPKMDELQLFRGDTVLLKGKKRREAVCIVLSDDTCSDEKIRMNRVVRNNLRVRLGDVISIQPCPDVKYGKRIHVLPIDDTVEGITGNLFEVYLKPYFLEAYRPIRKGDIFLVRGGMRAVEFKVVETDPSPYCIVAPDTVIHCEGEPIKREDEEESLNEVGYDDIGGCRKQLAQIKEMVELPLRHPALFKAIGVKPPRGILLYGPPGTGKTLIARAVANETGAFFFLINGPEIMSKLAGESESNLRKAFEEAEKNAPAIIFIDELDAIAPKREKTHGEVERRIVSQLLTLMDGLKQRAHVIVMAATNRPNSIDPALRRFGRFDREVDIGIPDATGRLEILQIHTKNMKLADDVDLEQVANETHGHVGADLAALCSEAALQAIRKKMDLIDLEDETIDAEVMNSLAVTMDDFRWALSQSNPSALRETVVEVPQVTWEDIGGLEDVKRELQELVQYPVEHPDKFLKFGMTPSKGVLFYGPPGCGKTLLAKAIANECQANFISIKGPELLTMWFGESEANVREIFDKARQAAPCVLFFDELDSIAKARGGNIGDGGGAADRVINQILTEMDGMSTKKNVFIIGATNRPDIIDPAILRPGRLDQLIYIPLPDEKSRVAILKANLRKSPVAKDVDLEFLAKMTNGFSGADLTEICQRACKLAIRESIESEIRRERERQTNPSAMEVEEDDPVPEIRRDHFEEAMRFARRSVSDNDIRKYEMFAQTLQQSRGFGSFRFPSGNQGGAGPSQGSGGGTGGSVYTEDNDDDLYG
Method: (§2) All other experiments were performed using the EnzCheck phosphatase assay kit (Molecular Probes). ATPase activity was measured in a 96-well flat bottom plate (Thermo Fisher Scientific). 50 nM VCP was incubated in 100 μL ATPase buffer with 2% DMSO with 25 μM compound and various ATP concentrations. The absorbance at 360 ± 5 nm was measured for more than 15 minutes at 25°C. Phosphate release was quantified based on a phosphate standard curve performed on the same plate. Initial enzyme velocity was determined by fitting the linear portion of the data to a linear regression model.
(§3) Experiments with varied compound concentration were fit to a 3-parameter dose curve with asymmetric profile likelihood 95% confidence intervals in GraphPad Prism 9 (GraphPad). Experiments with varied ATP concentration were fit to a Michaelis-Menten model with asymmetric profile likelihood 95% confidence intervals. Significance was determined for experiments with fixed compound or fixed ATP concentration using a linear mixed-effects model.

26S proteasome = 26S proteasome activity, Suc-LLVY-AMC fluorescence; type: biochemical, human; details: 25 μM compound, versus 1% DMSO
Method: 26S proteasome and substrate suc-LLVY-AMC were purchased (LifeSensors, Inc.). Fluorescence was measured in a microplate reader using a 96-well optical bottom black plate (Thermo Fisher Scientific). […] 26S proteasome was incubated in 100 μL proteasome buffer (20 mM HEPES, pH 7.5, 0.5 mM EDTA, 0.05% Triton-X) with 100 μM suc-LLVY-AMC, 1 mM ATP, and 25 μM compound or 1% DMSO. Fluorescence was measured at excitation 380 ± 10nm and emission 460 ± 10nm for more than 15 minutes at 37°C. Initial velocity was determined by fitting the linear portion of the data to a linear regression model. Significance was determined for using a linear mixed-effects model.

A232E VCP = target: T2, A232E VCP (Mus musculus, UniProt Q01853, A232E); assay: MESG-PNP ATPase assay, recombinant A232E VCP; type: biochemical; details: VCP Mutation A232E; replicate values
T2 construct: in the full-length recombinant VCP; His (N); made in house; host or cells: Escherichia coli BL21-CodonPlus (DE3)-RIL
T2 sequence (Q01853 whole entry A232E): as the sequence (Q01853 whole entry) above, with A232E counted along it
Method: as §2
(§4) Figure S8. VCP activators variable effect on ATPase activity of MSP associated mutations in recombinant VCP. ATPase activity of 50 nM recombinant VCP protein was measured using an MESG-PNP assay upon treatment with 25 μM compound versus 2% DMSO control at 1mM ATP for WT (also shown in Fig. 5c), A232E, R155H, and R159H (n=3 with 3 technical replicated per experiment; points are expressed as beta ± SE, linear effects model: *P<0.05,**P<0.01; ***P<0.001; ****P<0.0001).

WT VCP + Ufd1/Nploc4 = target: T3, WT VCP + Ufd1/Nploc4 (Mus musculus, UniProt Q01853); assay: Kinase-Glo ATPase assay, WT VCP with UFD1/NPLOC4 (UN); type: biochemical; details: for ATP consumed: WT VCP with UN
T3 construct: in the full-length recombinant VCP; His (N); made in house; host or cells: E. coli (VCP: BL21-CodonPlus (DE3)-RIL; UFD1 and NPLOC4: E. coli (DE3), purified by the MD Anderson core)
T3 sequence (Q01853 whole entry): as the sequence (Q01853 whole entry) above
T3 sequence (Q92890 whole entry partner): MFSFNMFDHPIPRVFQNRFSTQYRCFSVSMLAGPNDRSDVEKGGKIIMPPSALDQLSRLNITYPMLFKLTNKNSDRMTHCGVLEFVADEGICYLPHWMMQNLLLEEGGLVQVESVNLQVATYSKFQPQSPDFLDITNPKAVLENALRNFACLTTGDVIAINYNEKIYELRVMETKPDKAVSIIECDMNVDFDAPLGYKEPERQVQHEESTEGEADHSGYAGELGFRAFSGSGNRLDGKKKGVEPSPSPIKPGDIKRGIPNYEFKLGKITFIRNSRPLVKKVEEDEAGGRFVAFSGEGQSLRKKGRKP
T3 sequence (Q8TAT6 whole entry partner): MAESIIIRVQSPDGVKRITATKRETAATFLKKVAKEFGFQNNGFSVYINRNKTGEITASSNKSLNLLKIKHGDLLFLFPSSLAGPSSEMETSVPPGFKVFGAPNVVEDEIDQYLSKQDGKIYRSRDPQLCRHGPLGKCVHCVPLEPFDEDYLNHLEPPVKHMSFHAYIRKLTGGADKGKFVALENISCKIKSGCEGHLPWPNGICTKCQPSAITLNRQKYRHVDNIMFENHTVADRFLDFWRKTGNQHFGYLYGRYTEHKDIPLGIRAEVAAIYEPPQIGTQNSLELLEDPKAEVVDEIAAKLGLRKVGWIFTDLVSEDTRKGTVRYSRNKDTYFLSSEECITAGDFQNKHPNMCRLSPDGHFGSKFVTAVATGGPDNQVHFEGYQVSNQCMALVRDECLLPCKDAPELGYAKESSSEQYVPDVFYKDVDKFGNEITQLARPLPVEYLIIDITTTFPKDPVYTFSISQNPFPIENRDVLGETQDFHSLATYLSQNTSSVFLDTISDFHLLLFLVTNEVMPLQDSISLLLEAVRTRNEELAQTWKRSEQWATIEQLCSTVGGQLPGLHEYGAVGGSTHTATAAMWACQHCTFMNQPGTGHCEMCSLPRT
Method: as §1, §3

recombinant WT VCP [2] = target: T1, recombinant WT VCP; assay: Kinase-Glo ATPase assay, recombinant WT VCP; type: biochemical; details: for ATP consumed: WT VCP no UN
Method: as §1, §3

[3] = tested on: WT HeLa cells expressing GFP-TDP-4FL; assay: Flow cytometry of GFP-TDP-4FL integrated fluorescence, WT HeLa; type: cell-based; details: for Integrated Fluorescence WT (Normalized to CHX): replicate values
Method: Drug treatments were performed on neurons 7 days after lentiviral transduction and 14 days after neuronal induction. HeLa cells were collected using trypsin and pelleted at 1000g for 3 minutes. Cell pellets were resuspended in colorless DMEM (Invitrogen) supplemented with 2% FBS and filtered through a BD tube with cell strainer (BD Biosciences) for flow cytometry analysis on LSR II (BD Biosciences). Data analysis was performed on FlowJo v10 software. Integrated fluorescence intensity was determined by multiplying percent positive GFP and GFP median fluorescence values.

R155H VCP = target: T4, R155H VCP (Mus musculus, UniProt Q01853, R155H); assay: MESG-PNP ATPase assay, recombinant R155H VCP; type: biochemical; details: VCP Mutation R155H; replicate values
T4 construct: in the full-length recombinant VCP; His (N); made in house; host or cells: Escherichia coli BL21-CodonPlus (DE3)-RIL
T4 sequence (Q01853 whole entry R155H): as the sequence (Q01853 whole entry) above, with R155H counted along it
Method: as §2, §4

R159H VCP = target: T5, R159H VCP (Mus musculus, UniProt Q01853, R159H); assay: MESG-PNP ATPase assay, recombinant R159H VCP; type: biochemical; details: VCP Mutation R159H; replicate values
T5 construct: in the full-length recombinant VCP; His (N); made in house; host or cells: Escherichia coli BL21-CodonPlus (DE3)-RIL
T5 sequence (Q01853 whole entry R159H): as the sequence (Q01853 whole entry) above, with R159H counted along it
Method: as §2, §4

O=C(OCCN(C1=NS(=O)(=O)c2ccccc21)c1ccc(Cl)cc1)c1ccco1 [UP163]
luciferase activity (measured ATP without VCP) (luciferase; 62.5 μM ATP, increasing concentrations of compound): did not inhibit luciferase activity | measured ATP consumed (nmol) without VCP (luciferase; compound 6.25 μM): 3.139 nmol and 3.185 nmol and 3.132 nmol and 3.341 nmol and 3.220 nmol and 3.273 nmol and 3.147 nmol and 3.064 nmol and 3.275 nmol and 3.208 nmol and 3.040 nmol and 3.045 nmol | measured ATP consumed (nmol) without VCP (luciferase; compound 12.5 μM): 3.118 nmol and 3.105 nmol and 3.142 nmol and 3.139 nmol and 3.279 nmol and 3.429 nmol and 3.221 nmol and 3.237 nmol and 3.278 nmol and 3.379 nmol and 3.331 nmol and 3.029 nmol | measured ATP consumed (nmol) without VCP (luciferase; compound 25 μM): 3.141 nmol and 3.208 nmol and 3.280 nmol and 3.310 nmol and 3.135 nmol and 3.015 nmol and 3.257 nmol and 3.266 nmol and 3.329 nmol and 3.083 nmol and 3.153 nmol | measured ATP consumed (nmol) without VCP (luciferase; compound 50 μM): 3.191 nmol and 3.073 nmol and 3.250 nmol and 3.386 nmol and 3.272 nmol and 3.113 nmol and 3.202 nmol and 3.171 nmol and 3.209 nmol and 3.373 nmol and 3.530 nmol and 3.028 nmol | measured ATP consumed (nmol) without VCP (luciferase; compound 100 μM): 3.232 nmol and 3.235 nmol and 3.017 nmol and 3.209 nmol and 3.245 nmol and 3.024 nmol and 3.264 nmol and 3.329 nmol and 3.427 nmol and 3.000 nmol and 3.076 nmol | measured ATP consumed (nmol) without VCP (luciferase; compound 200 μM): 3.190 nmol (2×) and 3.291 nmol and 3.314 nmol and 3.330 nmol and 3.165 nmol and 3.125 nmol and 3.456 nmol and 3.010 nmol and 3.038 nmol and 3.261 nmol and 3.272 nmol | kcat (nmol Pi / nmol VCP / s) (95% CI) (recombinant WT VCP [1]; 25 μM activator): 0.366 (0.335, 0.401) nmol Pi / nmol VCP / s | increase in kcat (recombinant WT VCP [1]; 25 μM activator, versus DMSO): more than 50% | ATPase activity v0/ET (recombinant WT VCP [1]; [ATP] 62.5 μM): 0.201 nmol Pi / nmol VCP / s and 0.212 nmol Pi / nmol VCP / s and 0.198 nmol Pi / nmol VCP / s | ATPase activity v0/ET (recombinant WT VCP [1]; [ATP] 125 μM): 0.260 nmol Pi / nmol VCP / s and 0.250 nmol Pi / nmol VCP / s and 0.255 nmol Pi / nmol VCP / s | ATPase activity v0/ET (recombinant WT VCP [1]; [ATP] 250 μM): 0.300 nmol Pi / nmol VCP / s and 0.288 nmol Pi / nmol VCP / s and 0.278 nmol Pi / nmol VCP / s | ATPase activity v0/ET (recombinant WT VCP [1]; [ATP] 500 μM): 0.335 nmol Pi / nmol VCP / s and 0.312 nmol Pi / nmol VCP / s and 0.331 nmol Pi / nmol VCP / s | ATPase activity v0/ET (recombinant WT VCP [1]; [ATP] 1000 μM): 0.366 nmol Pi / nmol VCP / s and 0.351 nmol Pi / nmol VCP / s and 0.360 nmol Pi / nmol VCP / s | % activity of 26S proteasome (26S proteasome): 101.6% and 88.7% and 86.5% and 112.7% and 93.3% and 91.5% | ATPase activity, nmol Pi / nmol VCP / s (A232E VCP): 0.830 nmol Pi / nmol VCP / s and 0.637 nmol Pi / nmol VCP / s and 0.764 nmol Pi / nmol VCP / s | change in EC50 with UN compared to without UN (WT VCP + Ufd1/Nploc4): no change in EC50 | change in maximum percent activity with UN compared to without UN (WT VCP + Ufd1/Nploc4): significantly decreased | EC50 (WT VCP + Ufd1/Nploc4; WT VCP + Ufd1/Nploc4, 1:1 molar ratio): 8.9 µM | ATP consumed (WT VCP + Ufd1/Nploc4; 1.56 μM compound): 1.198 nmol and 1.183 nmol and 1.402 nmol | ATP consumed (WT VCP + Ufd1/Nploc4; 3.13 μM compound): 1.366 nmol and 1.295 nmol and 1.519 nmol | ATP consumed (WT VCP + Ufd1/Nploc4; 6.25 μM compound): 1.504 nmol and 1.416 nmol and 1.656 nmol | ATP consumed (WT VCP + Ufd1/Nploc4; 12.5 μM compound): 1.666 nmol and 1.564 nmol and 1.799 nmol | ATP consumed (WT VCP + Ufd1/Nploc4; 25 μM compound): 1.783 nmol and 1.641 nmol and 1.890 nmol | ATP consumed (WT VCP + Ufd1/Nploc4; 50 μM compound): 1.844 nmol and 1.710 nmol and 1.941 nmol | ATP consumed (WT VCP + Ufd1/Nploc4; 100 μM compound): 1.839 nmol and 1.775 nmol and 1.995 nmol | ATP consumed (WT VCP + Ufd1/Nploc4; 200 μM compound): 1.798 nmol and 1.691 nmol and 2.001 nmol | EC50 (recombinant WT VCP [2]; EC50 (μM) (95% CI), WT VCP without UN, 50 nM VCP, 62.5 μM ATP, 2% DMSO): 9 µM | ATP consumed (recombinant WT VCP [2]; 1.56 μM compound): 0.996 nmol and 1.192 nmol and 1.605 nmol | ATP consumed (recombinant WT VCP [2]; 3.13 μM compound): 0.935 nmol and 1.312 nmol and 1.332 nmol | ATP consumed (recombinant WT VCP [2]; 6.25 μM compound): 1.040 nmol and 1.494 nmol and 1.616 nmol | ATP consumed (recombinant WT VCP [2]; 12.5 μM compound): 1.105 nmol and 1.570 nmol and 1.588 nmol | ATP consumed (recombinant WT VCP [2]; 25 μM compound): 1.206 nmol and 1.717 nmol and 1.792 nmol | ATP consumed (recombinant WT VCP [2]; 50 μM compound): 1.416 nmol and 2.232 nmol and 2.160 nmol | ATP consumed (recombinant WT VCP [2]; 100 μM compound): 1.546 nmol and 2.072 nmol and 2.521 nmol | ATP consumed (recombinant WT VCP [2]; 200 μM compound): 1.557 nmol and 2.138 nmol and 2.227 nmol | recombinant WT VCP ATPase activity (recombinant WT VCP [2]; in vitro validation of 106 screen hits): significantly increased | increase of VCP activity (recombinant WT VCP [2]; maximum, WT VCP without UN): 104% | Integrated Fluorescence WT (Normalized to CHX) ([3]; 5μM compound with CHX): 1.026 and 0.947 and 1.013 and 0.859 and 0.810 | Integrated Fluorescence WT (Normalized to CHX) ([3]; 20μM compound with CHX): 0.921 and 1.001 and 0.939 and 1.006 and 0.777 and 0.710 | clearance of GFP-TDP-4FL aggregates (integrated fluorescence) ([3]; MG132, then CHX with 5 or 20 μM activator): enhances clearance of TDP-4FL inclusions; also recorded: slightly enhanced clearance | ATPase activity, nmol Pi / nmol VCP / s (R155H VCP): 0.759 nmol Pi / nmol VCP / s and 0.647 nmol Pi / nmol VCP / s and 0.706 nmol Pi / nmol VCP / s | ATPase activity, nmol Pi / nmol VCP / s (R159H VCP): 0.812 nmol Pi / nmol VCP / s and 0.873 nmol Pi / nmol VCP / s and 0.726 nmol Pi / nmol VCP / s
